Experimental data: patent publication US11339156B2, “3-(1H-pyrazol-4-yl)pyridine allosteric modulators of the M4 muscarinic acetylcholine receptor” (Merck Sharp & Dohme Corp., priority 2017, dated 2022)

The molecules below were run against T1, human M4 muscarinic acetylcholine receptor (Homo sapiens, UniProt P08173) (assay: human FLIPR-based M4 PAM assay (CHO-K1 cells with human M4 receptor and Gαqi5, calcium dye fluorescence)). Settings: inflection point of 4 parameter logistic fit; acetylcholine added at 20% of maximum response; read-out: M4PAM IP.
T1 construct: expressed in transfected cells
T1 sequence (P08173 1-479): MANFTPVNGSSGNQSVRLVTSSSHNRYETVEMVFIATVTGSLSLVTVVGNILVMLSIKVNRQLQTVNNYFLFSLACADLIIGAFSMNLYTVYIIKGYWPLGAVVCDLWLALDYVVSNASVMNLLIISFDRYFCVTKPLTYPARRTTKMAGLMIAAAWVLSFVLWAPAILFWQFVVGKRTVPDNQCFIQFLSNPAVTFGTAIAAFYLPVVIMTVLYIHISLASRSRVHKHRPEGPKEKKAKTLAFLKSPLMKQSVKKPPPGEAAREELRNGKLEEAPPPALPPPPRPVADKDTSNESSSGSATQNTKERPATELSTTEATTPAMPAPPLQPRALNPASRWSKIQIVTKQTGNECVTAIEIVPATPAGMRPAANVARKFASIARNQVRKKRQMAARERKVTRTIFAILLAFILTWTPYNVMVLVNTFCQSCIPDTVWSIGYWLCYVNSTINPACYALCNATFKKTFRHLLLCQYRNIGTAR
Assay type: cell-based
Outline: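 CHO-K1 cells were loaded with calcium dye at 37 °C for ~1 h. Fluorescence (ex 470–495/em 515–575 nm) was read for 4 min after test compound at increasing concentrations, then 3.5 min after acetylcholine at an EC20; sometimes a third addition at EC70 followed. The value is the inflection point of a 4-parameter logistic fit.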

| Structure (SMILES) | EC50 |
| --- | --- |
| CC(C)(C)Cn1cc(-c2cc(F)cnc2-c2ccn3ccnc3c2)cn1 [Example 80, 7-{3-[1-(2,2-dimethylpropyl)-1H-pyrazol-4-yl]-5-fluoropyridin-2-yl}imidazo[1,2-a]pyridine] | 97.7 nM |
| CC(C)(C)Cn1cc(-c2ccc(C#N)nc2-c2ccc3cnnn3c2)cn1 [Example 84, 5-[1-(2,2-dimethylpropyl)-1H-pyrazol-4-yl]-6-[1,2,3]triazolo[1,5-a]pyridin-6-ylpyridine-2-carbonitrile] | 235 nM |
| COc1ccc(-c2cnn(CC(C)(C)C)c2)c(-c2ccn3cc(C)nc3c2)n1 [Example 85, 7-{3-[1-(2,2-dimethylpropyl)-1H-pyrazol-4-yl]-6-methoxypyridin-2-yl}-2-methylimidazo[1,2-a]pyridine] | 149 nM |
| Cc1cn2ccc(-c3ncccc3-c3cnn(CC(C)(C)C)c3)cc2n1 [Example 87, 7-{3-[1-(2,2-dimethylpropyl)-1H-pyrazol-4-yl]pyridin-2-yl}-2-methylimidazo[1,2-a]pyridine] | 121 nM |
| Cc1nc2cc(-c3nc(C#N)ccc3-c3cnn(CC(C)(C)C)c3)cnc2n1C [Example 89, 6-(2,3-dimethyl-3H-imidazo[4,5-b]pyridin-6-yl)-5-[1-(2,2-dimethylpropyl)-1H-pyrazol-4-yl]pyridine-2-carbonitrile] | 116 nM |
| Cc1cn2ccc(-c3nc(C#N)ccc3-c3cnn(CC(O)C(C)C)c3)cc2n1 (stereo not drawn) [Example 90, 5-[1-(2-hydroxy-3-methylbutyl)-1H-pyrazol-4-yl]-6-(2-methylimidazo[1,2-a]pyridin-7-yl)pyridine-2-carbonitrile] | 92.2 nM |
| Cc1ccc(-c2cnn(CCC(C)C)c2F)c(-c2ccn3ccnc3c2)n1 [Example 95, 7-{3-[5-fluoro-1-(3-methylbutyl)-1H-pyrazol-4-yl]-6-methylpyridin-2-yl}imidazo[1,2-a]pyridine] | 79.9 nM |

Molecules with a lower EC50, results first:

| EC50 | Structure (SMILES) |
| --- | --- |
| 68.7 nM | Cc1cn2ncc(-c3nc(C#N)ccc3-c3cnn(CC(C)(C)C)c3)cc2n1 [Example 88, 5-[1-(2,2-dimethylpropyl)-1H-pyrazol-4-yl]-6-(2-methylimidazo[1,2-b]pyridazin-7-yl)pyridine-2-carbonitrile] |
| 51.6 nM | CC(C)(C)Cn1cc(-c2ccc(C#N)nc2-c2ccn3c(F)cnc3c2)cn1 [Example 82, 5-[1-(2,2-dimethylpropyl)-1H-pyrazol-4-yl]-6-(3-fluoroimidazo[1,2-a]pyridin-7-yl)pyridine-2-carbonitrile] |
| 46 nM | CC(C)(C)Cn1cc(-c2ccc(C(F)(F)F)nc2-c2ccn3ccnc3c2)cn1 [Example 83, 7-{3-[1-(2,2-dimethylpropyl)-1H-pyrazol-4-yl]-6-(trifluoromethyl)pyridin-2-yl}imidazo[1,2-a]pyridine] |
| 38.4 nM | CC(C)(C)Cn1cc(-c2ccc(C#N)nc2-c2ccc3nn[nH]c3c2)cn1 [Example 79, 6-(1H-benzotriazol-6-yl)-5-[1-(2,2-dimethylpropyl)-1H-pyrazol-4-yl]pyridine-2-carbonitrile] |
| 27.5 nM | N#Cc1ccc(-c2cnn(CC3CCC3)c2)c(-c2ccn3ccnc3c2)n1 [Example 93, 5-[1-(cyclobutylmethyl)-1H-pyrazol-4-yl]-6-imidazo[1,2-a]pyridin-7-ylpyridine-2-carbonitrile] |
| 24.7 nM | Cc1cn2ccc(-c3nc(C#N)ccc3-c3cnn(CC(C)(C)C)c3)cc2n1 [Example 81, 5-[1-(2,2-dimethylpropyl)-1H-pyrazol-4-yl]-6-(2-methylimidazo[1,2-a]pyridin-7-yl)pyridine-2-carbonitrile] |
| 23.6 nM | CC1(Cn2cc(-c3ccc(C#N)nc3-c3ccn4ccnc4c3)cn2)CCC1 [Example 94, 6-imidazo[1,2-a]pyridin-7-yl-5-{1-[(1-methylcyclobutyl)methyl]-1H-pyrazol-4-yl}pyridine-2-carbonitrile] |
| 17.1 nM | CCC(C)(C)Cn1cc(-c2ccc(C#N)nc2-c2ccn3ccnc3c2)cn1 [Example 91, 5-[1-(2,2-dimethylbutyl)-1H-pyrazol-4-yl]-6-imidazo[1,2-a]pyridin-7-ylpyridine-2-carbonitrile] |
